The test deals with TLR2/TLR6 (Homo sapiens) (UniProt O60603+Q9Y2C9). Briefly: Agonist activity at TLR2/TLR6 (unknown origin) assessed as induction of IL-8 production relative to control. Type of test: protein-complex assay.

The text below walks through data of ChEMBL document CHEMBL5226282, “TLR2 Agonistic Small Molecules: Detailed Structure-Activity Relationship, Applications, and Future Prospects” (J Med Chem, 2021).

*1 amine or outer side, *2 acyl side, *3 side chain or, on linkers, in order; H or OH if unused. Where a SMILES comes first, the peptide text is derived from it. [ ]: non-standard residue; d: D form. The star is where a group is joined. X1 = CCCCCCCCCCCCCCCC(=O)OCC(CCCC(N[*:1])C(=O)[*:2])OC(=O)CCCCCCCCCCCCCCC; Palmitoyl = CCCCCCCCCCCCCCCC(=O)*

Regarding `CCCCCCCCCCCCCCCC(=O)NC(CCCC(COC(=O)CCCCCCCCCCCCCCC)OC(=O)CCCCCCCCCCCCCCC)C(=O)N[C@@H](CO)C(=O)N[C@@H](CO)C(=O)N[C@@H](CC(N)=O)C(=O)N[C@@H](C)C(=O)N[C@@H](CO)C(=O)N[C@@H](CCCCN)C(=O)N[C@@H](CCCCN)C(=O)N[C@@H](CCCCN)C(=O)N[C@@H](CCCCN)C(=O)O` (stereo partly specified) (Palmitoyl-[X1]SSNASKKKK-OH), the Activity was determined as 23%.
